US20240252596A1, “Injectable Polymeric Biopharmaceutical Formulations” (The Board of Trustees of the Leland Stanford Junior …, priority 2023, published 2024)

Key:
[1] = Parameters of liquid carriers (density, viscosity, vapor pressure); details: liquid carrier
Description: (§1) To investigate the liquid carrier component of the subject compositions, a number of solvents were tested for their suspension performance characteristics.

[2] = Syringe force measurements of liquid carriers alone after 48 h; format: physicochemical; details: media alone in syringe, after 48 h at ambient temperature
Description: To investigate the syringe force profile for various liquid carriers in syringes (e.g., break loose (initiating) force, and the glide (sustaining) force), the following media alone were loaded into syringes in duplicate (n=2): • 1. triacetin (100%) • 2. benzyl benzoate (100%) • 3. Miglyol 810 (100%) • 4. Miglyol 840 (100%) • 5. benzyl alcohol (100%) • 6. ethyl oleate (100%).
The above syringes were stored for 48 h at ambient temperature, protected from light.
Syringe force measurements (n=2) were conducted on each media after 48 h.

[3] = as above; format: physicochemical; details: vehicle
[4] = Liquid carrier studies: suspension performance of BSA/MoNi (5%) microparticles at 460 mg/mL; details: for Suspension Performance: BSA/MoNi (5%) microparticles dispersed at 460 mg/mL in the media; for Additional comments (consistency on dispersion, stability of suspension): BSA/MoNi (5%) microparticles dispersed in the media; for time until suspension hardens: sealed in a glass container with parafilm
Description: as §1

SKH1-E mice = assay: Tolerability screen: subcutaneous injection of solvent or solvent blend, adverse skin reaction; format: in vivo; details: 10 uL s.c.
Description: SKH1-E mice were subcutaneously administered 10 μL of solvent or solvent blend with triacetin (no protein). […] Volume of solvent injected was 2× the solvent volume that would be administered to a mouse in a paste.
Degree of adverse skin reaction was quantified using the grading scale of Table 5: […]

Density [1] [g/mL]	Vapor pressure [1] [Pa]	Viscosity (@25 C.) [1]	Break loose (N), n = 2 [2] [N]	Glide force (N), n = 2 [2] [N]	Viscosity (cp)* [3]	Suspension Performance [4]	Additional comments (consistency on dispersion, stability of suspension) [4]	time until suspension hardens [4]	SMILES	skin reaction (SKH1-E mice)
1.04	12	5.4	4.8	2.5	5 cp	+	Forms very low viscosity	–	OCc1ccccc1 [Benzyl Alcohol (BA), Benzyl Alcohol]	–
1.11	–	8.29	5.7	3.5	8-9 cp	+	Forms a low viscosity solution	–	O=C(OCc1ccccc1)c1ccccc1 [Benzyl benzoate]	–
1.09	80	2.0	–	–	–	–	quickly hardens into a flaky	paste (within 1 hour when sealed	C[S+](C)[O-] [Dimethyl sulfoxide (DMSO), Dimethyl sulfoxide]	–
0.79	–	1.07	–	–	–	–	Clumps immediately, cannot	–	CCO [Ethyl alcohol]	–
1.03	45	1.89	–	–	–	+/−	Forms very low viscosity	–	CN1CCCC1=O [N-methyl-2-pyrrolidone (NMP), N-methyl-2-pyrrolidone]	–
1.03	11	48.6	–	–	–	–	quickly hardens into a sticky	rock (within a couple hours	CC(O)CO (stereo not drawn) [Propylene glycol (PG), Propylene glycol]	–
1.16	0.267	23	8.1	6.1	23 cp	++	A very good non-solvent. Shows	–	CC(=O)OCC(COC(C)=O)OC(C)=O [Triacetin]	no skin swelling or redness
–	–	–	4.2	3.2	6 cp	–	–	–	CCCCCCCC/C=C\CCCCCCCC(=O)OCC [ethyl oleate]	–
